Test results from patent US9889093B2, “Application of andrographolide in the preparation of a pharmaceutical for treatment of inflammatory bowel disease, andrographolide enteric targeting micropellet, and method for preparation thereof” (TASLY PHARMACEUTICAL GROUP CO., LTD., priority 2013, dated 2018).
Converted amounts (≈) assume the structure as drawn. Marks after values point to notes of the source that are not given here.

Experiments:
[1] = system: zebra fish Crohn's disease model; assay: Zebra fish Crohn's disease model (TNBS), efficacy; assay type: in vivo; settings: for Inflammation regression ratio: based on neutrophil infiltration; for Number of Neutrophil: intestinal tissue, x ± SE, n = 10; for Ratio with the blank control group: neutrophil number
[2] = system: zebra fish Crohn's disease model; assay: Zebra fish Crohn's disease model (TNBS), efficacy; assay type: in vivo; settings: 48 hours
Description: Crohn's disease model (mainly inflammation) was built by using TNBS (2,4,6-trinitrobenzenesulfonic acid), and 30 zebra fishes were randomly divided into each treating group. […] Image analysis software was used to analyze the pictures. Moreover, the intestinal mucosal thickness, intestinal lumen diameter and intestinal lumen area were observed carefully under a microscope and the intestinal lumen diameter and intestinal lumen area were analyzed quantitatively. Therapeutical efficacy of the tested drug in zebra fish Crohn's disease was calculated in accordance with the intestinal lumen area in each group. The calculation formula was presented as follows: Therapeutical efficacy (%)=[1−(the administration group−the blank control group)/(the model group−the blank control group)]×100%
Statistically analyzed results were expressed as mean±SE. Variance analysis was used for comparison among many groups, and Dunnett's T test for comparison between two groups.

[3] = system: TNBS-induced UC rats; assay: TNBS-induced UC rat model, different administration routes; assay type: in vivo; settings: for Gross morphological injury score / Ulcer ratio: 5 days
From the text: 4 Dose Designing and Grouping • 4.1 Grouping: quarantine-qualified 84 rats were all used for making UC model. The successful rats were randomly divided into 6 groups: the model control group, the positive control group, the andrographolide low-dose intragastric group, the andrographolide high-dose intragastric group, the andrographolide low-dose intracolonical group and the andrographolide high-dose intracolonical group, 14 rats per group. • 4.2 Dose: the same doses were adopted in both intragastric and intracolonical groups. Animals were not treated in the model control group, the positive control group (mesalazine enteric tablet, 420 mg·kg^−1·d^−1), the andrographolide low-dose intragastric group (30 mg·kg^−1·d^−1), the andrographolide high-dose intragastric group (90 mg·kg^−1·d^−1), the andrographolide low-dose intracolonical group (30 mg·kg^−1·d^−1) and the andrographolide high-dose intracolonical group (90 mg·kg^−1·d^−1).
5. Method • 5.1 Method of making UC model: the rats were anesthetized. 2 mm-diameter latex tube was gently inserted into the position about 8 cm inside the body of the rats through anus, and TNBS in 50% ethanol solution (TNBS 125 mg/kg) was injected into intestinal lumen with an injector by one time, 0.5 ml/rat. The tail of the rat was lifted up for 30 s to make the model making agent (i.e., TNBS) fully infiltrate into the intestinal lumen of the rats. • 5.2 Method of administration: the same dose (1 mL/100 g) was adopted in both intragastric and intracolonical administration, once daily for consecutive 5 days. • 5.3 Method for sampling in experiment: 2 hours after the last administration, the rats were killed by cervical vertebra dislocation and abdomen was opened to separate the colon. Along mesenteric side, the intestinal lumen was cut and rinsed with 4° C. normal saline and spread on a plastic plate. • 5.4 Scoring method for colon gross morphological injury was referred to scoring method for mucosal injury (Bjelkengren G, Aronsen K F, Augustsson N E, etc. Radioprotective effect of local administration of lysine vasopressin and triglycyl lysine vasopressin on the rectal mucosa in rats[J]. Acta Oncol, 1995, 34(4):487-92) to record the mucosal injury score: dotted line blooding and small red spots (<1 mm): 1 score, piece blooding and big red spots (=1 mm): 3 score; and erosion and ulcer: 5 score.
Data were expressed as mean+standard deviation (x±S). All numerical variables were analyzed with SPSS13.0 software by one-way ANOVA. T-test analysis was used for inter-group comparison.

[4] = Solubility of the drug in DMSO and fish farm water; assay type: physicochemical
[5] = andrographolide high-dose 90 mg/kg, intracolonical
[6] = andrographolide high-dose 90 mg/kg, intragastric
[7] = andrographolide low-dose 30 mg/kg, intracolonical
[8] = andrographolide low-dose 30 mg/kg, intragastric

Question: Which “Intestinal lumen area reduced by (therapeutical efficacy)” value (“Intestinal lumen area reduced” below) ([1]; andrographolide 500 μg/ml, 48 hours) does the source give for `C=C1CC[C@@H]2[C@](C)(CO)[C@H](O)CC[C@@]2(C)[C@@H]1C/C=C1/C(=O)OC[C@H]1O` [Andrographolide] here?
Answer: Its value is 65±10.1%.

Question: And the Inflammation regression ratio ([1]; andrographolide 50 μg/ml)?
Answer: Its Inflammation regression ratio is 45 ± 3.7 %.

Question: What about the Inflammation regression ratio ([1]; andrographolide 50 μg/ml, listed as andrographolide) of the same molecule?
Answer: The Inflammation regression ratio was 45±3.74%.

Question: What about the Inflammation regression ratio ([1]; andrographolide 100 μg/ml) of the same molecule?
Answer: Its Inflammation regression ratio is 46 ± 3.7 %.

Question: What about the Inflammation regression ratio ([1]; andrographolide 100 μg/ml, listed as andrographolide) of the same molecule?
Answer: The Inflammation regression ratio was 46±3.74%.

Question: What about the Inflammation regression ratio ([1]; andrographolide 250 μg/ml) of the same molecule?
Answer: The Inflammation regression ratio was 63 ± 4.4 %.

Question: And the Inflammation regression ratio ([1]; andrographolide 250 μg/ml, listed as andrographolide)?
Answer: The Inflammation regression ratio was 63±4.42%.

Question: And the Inflammation regression ratio ([1]; andrographolide 500 μg/ml)?
Answer: The Inflammation regression ratio was 79 ± 9.0 %.

Question: And the Inflammation regression ratio ([1]; andrographolide 500 μg/ml, listed as andrographolide)?
Answer: Its Inflammation regression ratio is 79±8.98%.

Question: What about the “Number of Neutrophil” value ([1]; andrographolide 50 μg/ml) of the same molecule?
Answer: Its value is 18 ± 0.54.

Question: What about the “Number of Neutrophil” value ([1]; andrographolide 100 μg/ml) of the same molecule?
Answer: The value was 17 ± 0.54.

Question: And the “Number of Neutrophil” value ([1]; andrographolide 250 μg/ml)?
Answer: The value was 15 ± 0.64.

Question: What about the “Number of Neutrophil” value ([1]; andrographolide 500 μg/ml) of the same molecule?
Answer: The value was 13 ± 1.30.

Question: What about the “Ratio with the blank control group” value ([1]; andrographolide 50 μg/ml) of the same molecule?
Answer: The value was 1.97 ± 0.06.

Question: And the “Ratio with the blank control group” value ([1]; andrographolide 100 μg/ml)?
Answer: The value was 1.96 ± 0.06.

Question: What about the “Ratio with the blank control group” value ([1]; andrographolide 250 μg/ml) of the same molecule?
Answer: The value was 1.67 ± 0.07.

Question: What about the “Ratio with the blank control group” value ([1]; andrographolide 500 μg/ml) of the same molecule?
Answer: The value was 1.40 ± 0.15.

Question: And the “Intestinal lumen area reduced” value ([2]; andrographolide 50 μg/ml)?
Answer: Its value is 38±12.9%.

Question: And the “Intestinal lumen area reduced” value ([2]; andrographolide 100 μg/ml)?
Answer: Its value is 49±8.9%.

Question: And the “Intestinal lumen area reduced” value ([2]; andrographolide 250 μg/ml)?
Answer: The value was 65±14.7%.

Question: What about the “Gross morphological injury score” value [3, 5] of the same molecule?
Answer: Its value is 1.96 ± 1.09.

Question: And the Ulcer ratio [3, 5]?
Answer: The Ulcer ratio was 17.21** %.

Question: What about the “Gross morphological injury score” value [3, 6] of the same molecule?
Answer: The value was 3.25 ± 1.98.

Question: What about the Ulcer ratio [3, 6] of the same molecule?
Answer: Its Ulcer ratio is 29.21** %.

Question: What about the “Formless watery stool symptoms, course” value ([3]; andrographolide high-dose intragastric and intracolonical groups, 90 mg/kg) of the same molecule?
Answer: The value was “totally disappeared on the 4th˜5th days”.

Question: What about the “Gross morphological injury score” value [3, 7] of the same molecule?
Answer: Its value is 6.53 ± 2.12.

Question: And the Ulcer ratio [3, 7]?
Answer: Its Ulcer ratio is 38.54* %.

Question: And the “Gross morphological injury score” value [3, 8]?
Answer: The value was 6.71 ± 2.57.

Question: What about the Ulcer ratio [3, 8] of the same molecule?
Answer: The Ulcer ratio was 45.69* %.

Question: What about the solubility ([4]; DMSO, organic solvent or mixture) of the same molecule?
Answer: Its solubility is ~250 mg/mL (≈ 713 mM).

Question: What about the “Concentration at which the drug began to precipitate” value ([4]; fish farm water) of the same molecule?
Answer: The value was ≥ 500 µg/mL.
